A short description of the data set: mn = molality of the nth substance listed, in mol/kg. Conditions: 293.15 K, 101 kPa, Liquid, Vibrating tube method.

± gives the expanded uncertainty stated by the source.

`CN(CCO)CCO` [N-methyldiethanolamine] + O: the mass density (commonly mass per unit of volume) runs as follows: (m1 = 1.867) 1014.8 ± 1 kg/m3; (m1 = 4.118) 1029.6 ± 1 kg/m3; (m1 = 6.189) 1038.8 ± 1 kg/m3; (m1 = 8.119) 1044.8 ± 1 kg/m3; (m1 = 10.03) 1048.6 ± 1.1 kg/m3; (m1 = 12.1) 1051.6 ± 1.1 kg/m3.

On to `C1CNCCN1` [piperazine] + O, for which the mass density is, setting by setting: (m1 = 0.2628) 999.1 ± 1 kg/m3; (m1 = 0.4689) 999.8 ± 1 kg/m3; (m1 = 0.7153) 1000.8 ± 1 kg/m3; (m1 = 0.9675) 1001.8 ± 1 kg/m3; (m1 = 1.268) 1003.1 ± 1 kg/m3; (m1 = 1.448) 1004 ± 1 kg/m3.

These data come from the NIST ThermoML archive (doi:10.1021/je9003383).
